According to PubChem BioAssay AID248 (DTP/NCI, 2004):
Several values for one entry are separate records, joined by “and”; a condition that tells them apart may be missing. Identical values can stand only once. Inconclusive results and toxic doses are left out. Rule as the data show it: active = T/C of 150% or more; inactive = T/C below 125%.

System: L1210 leukemia ip in BDF1 mice, survival T/C
Assay: NCI In Vivo Anticancer Drug Screen. Data for tumor model L1210 Leukemia (intraperitoneal) in B6D2F1 (BDF1) mice
Settings: higher = longer survival
Procedure, shortened: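 Transplanted-tumor mice were given test agent; controls received vehicle only. Survival readings from the two groups were divided (treated over control).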

[1] = endpoint: mean survival time, dose: 100.0 mg/kg/injection, schedule: Q01DX001 (ip), vehicle: carboxymethylcellulose (CMC)
[2] = endpoint: mean survival time, dose: 200.0 mg/kg/injection, schedule: Q01DX001 (ip), vehicle: carboxymethylcellulose (CMC)
[3] = endpoint: mean survival time, dose: 400.0 mg/kg/injection, schedule: Q01DX001 (ip), vehicle: carboxymethylcellulose (CMC)
[4] = endpoint: mean survival time, dose: 100.0 mg/kg/injection, schedule: Q01DX009 (ip), vehicle: Klucel (hydroxypropylcellulose) (HPC)
[5] = endpoint: mean survival time, dose: 200.0 mg/kg/injection, schedule: Q01DX009 (ip), vehicle: Klucel (hydroxypropylcellulose) (HPC)
[6] = endpoint: mean survival time, dose: 400.0 mg/kg/injection, schedule: Q01DX009 (ip), vehicle: Klucel (hydroxypropylcellulose) (HPC)
[7] = endpoint: mean survival time, dose: 100.0 mg/kg/injection, schedule: Q04DX002 (ip), vehicle: saline with Tween-80
[8] = endpoint: mean survival time, dose: 200.0 mg/kg/injection, schedule: Q04DX002 (ip), vehicle: saline with Tween-80
[9] = endpoint: mean survival time, dose: 400.0 mg/kg/injection, schedule: Q04DX002 (ip), vehicle: saline with Tween-80
[10] = endpoint: mean survival time, dose: 50.0 mg/kg/injection, schedule: Q01DX001 (ip), vehicle: saline
[11] = endpoint: mean survival time, dose: 100.0 mg/kg/injection, schedule: Q01DX001 (ip), vehicle: saline
[12] = endpoint: mean survival time, dose: 200.0 mg/kg/injection, schedule: Q01DX001 (ip), vehicle: saline
[13] = endpoint: mean survival time, dose: 400.0 mg/kg/injection, schedule: Q01DX001 (ip), vehicle: saline
[14] = endpoint: mean survival time, dose: 100.0 mg/kg/injection, schedule: Q04DX003 (ip), vehicle: Klucel (hydroxypropylcellulose) (HPC)
[15] = endpoint: mean survival time, dose: 200.0 mg/kg/injection, schedule: Q04DX003 (ip), vehicle: Klucel (hydroxypropylcellulose) (HPC)
[16] = endpoint: mean survival time, dose: 400.0 mg/kg/injection, schedule: Q04DX003 (ip), vehicle: Klucel (hydroxypropylcellulose) (HPC)
[17] = endpoint: mean survival time, dose: 100.0 mg/kg/injection, schedule: Q04DX003 (ip), vehicle: saline with Tween-80

Measured: T/C

CCOc1ccc(Br)cc1C1N(Cc2ccc(N(CCCl)CCCl)cc2C)CCCN1Cc1ccc(N(CCCl)CCCl)cc1C
inactive: [1] 106 % of control | [2] 101 % of control | [3] 108 % of control

O=[N+]([O-])c1ccc(N/N=C/c2ccnc3ccccc23)cc1
inactive: [4] 93 % of control | [5] 91 % of control | [6] 91 % of control

CN(C)C=Nc1cccc2cn[nH]c12
inactive: [7] 106 % of control | [8] 106 % of control | [9] 98 % of control

Cc1cc[n+]2n1CC(O)C2 (stereo not drawn)
inactive: [10] 102 % of control | [11] 100 % of control | [12] 96 % of control | [13] 102 % of control

N#CCCCCCCCCC(=O)c1ccc(O)cc1O
inactive: endpoint: mean survival time, dose: 87.5 mg/kg/injection, schedule: Q01DX009 (ip), vehicle: Klucel (hydroxypropylcellulose) (HPC) 96 % of control | endpoint: mean survival time, dose: 175.0 mg/kg/injection, schedule: Q01DX009 (ip), vehicle: Klucel (hydroxypropylcellulose) (HPC) 100 % of control | endpoint: mean survival time, dose: 350.0 mg/kg/injection, schedule: Q01DX009 (ip), vehicle: Klucel (hydroxypropylcellulose) (HPC) 102 % of control

NC(C(=O)O)c1cccc(Cl)c1 (stereo not drawn)
inactive: endpoint: mean survival time, dose: 100.0 mg/kg/injection, schedule: Q01DX001 (ip), vehicle: Klucel (hydroxypropylcellulose) (HPC) 123 % of control | [14] 100 % of control | endpoint: mean survival time, dose: 200.0 mg/kg/injection, schedule: Q01DX001 (ip), vehicle: Klucel (hydroxypropylcellulose) (HPC) 109 % of control | [15] 91 % of control | endpoint: mean survival time, dose: 400.0 mg/kg/injection, schedule: Q01DX001 (ip), vehicle: Klucel (hydroxypropylcellulose) (HPC) 105 % of control | [16] 100 % of control

COc1ccc(OC)c(/C=C/C=O)c1
inactive: [11] 110 % of control | [12] 96 % of control | [13] 98 % of control

CN(C)CCSCCN1c2ccccc2Sc2ccc(Cl)cc21
inactive: endpoint: mean survival time, dose: 100.0 mg/kg/injection, schedule: Q04DX003 (ip), vehicle: saline 104 % of control

CCOC(=O)c1ccc(N=NC2C(=O)N(c3ccccc3)N=C2C)cc1 (stereo not drawn)
inactive: [11] 96 % of control | [12] 96 % of control

CC(=O)C(C)C(O)c1ccc([N+](=O)[O-])cc1 (stereo not drawn)
inactive: [4] 91 % of control | [14] 100 % of control | [5] 91 % of control | [15] 98 % of control | [6] 92 % of control | [16] 98 % of control

COC(=O)C(Cc1c[nH]c2ccccc12)NC(=O)CNC(=O)OCc1ccccc1 (stereo not drawn)
inactive: endpoint: mean survival time, dose: 100.0 mg/kg/injection, schedule: Q04DX003 (ip), vehicle: other 98 % of control | endpoint: mean survival time, dose: 200.0 mg/kg/injection, schedule: Q04DX003 (ip), vehicle: other 102 % of control | endpoint: mean survival time, dose: 400.0 mg/kg/injection, schedule: Q04DX003 (ip), vehicle: other 98 % of control

CCCCCCCCCC(=O)CCCCC
inactive: endpoint: mean survival time, dose: 100.0 mg/kg/injection, schedule: Q01DX009 (ip), vehicle: other 100 % of control | endpoint: mean survival time, dose: 200.0 mg/kg/injection, schedule: Q01DX009 (ip), vehicle: other 98 % of control | endpoint: mean survival time, dose: 400.0 mg/kg/injection, schedule: Q01DX009 (ip), vehicle: other 93 % of control

CCN(CCC#N)C(=S)Nc1ccc(C)c(C)c1
inactive: [7] 89 % of control | [8] 108 % of control | [9] 86 % of control

Cc1cc(Cl)c([N+](=O)[O-])c(P(=O)(O)O)c1
inactive: endpoint: mean survival time, dose: 75.0 mg/kg/injection, schedule: Q01DX001 (ip), vehicle: saline 90 % of control | endpoint: mean survival time, dose: 150.0 mg/kg/injection, schedule: Q01DX001 (ip), vehicle: saline 90 % of control | endpoint: mean survival time, dose: 300.0 mg/kg/injection, schedule: Q01DX001 (ip), vehicle: saline 96 % of control

S=C(Nc1ccc(Cl)c(Cl)c1)Sc1ccccc1
inactive: endpoint: mean survival time, dose: 50.0 mg/kg/injection, schedule: Q04DX003 (ip), vehicle: saline with Tween-80 95 % of control | [17] 91 % of control

CN(C)c1ccc(N=Nc2nccs2)cc1
inactive: [17] 91 % of control | endpoint: mean survival time, dose: 400.0 mg/kg/injection, schedule: Q04DX003 (ip), vehicle: saline with Tween-80 88 % of control

CC(=O)Nc1nc(C)c(CCCNS(=O)(=O)c2ccc([N+](=O)[O-])cc2)c(=O)[nH]1
inactive: endpoint: mean survival time, dose: 100.0 mg/kg/injection, schedule: Q01DX009 (ip), vehicle: gum acacia 90 % of control | endpoint: mean survival time, dose: 200.0 mg/kg/injection, schedule: Q01DX009 (ip), vehicle: gum acacia 88 % of control | endpoint: mean survival time, dose: 400.0 mg/kg/injection, schedule: Q01DX009 (ip), vehicle: gum acacia 87 % of control

CN(C)c1ccc(NC(=S)Nc2ccc(N(C)C)cc2)cc1
inactive: endpoint: mean survival time, dose: 400.0 mg/kg/injection, schedule: Q01DX001 (ip), vehicle: saline with Tween-80 88 % of control

CC(C)N(C(=S)S)C(C)C
inactive: endpoint: mean survival time, dose: 100.0 mg/kg/injection, schedule: Q01DX009 (ip), vehicle: saline 105 % of control | endpoint: mean survival time, dose: 200.0 mg/kg/injection, schedule: Q01DX009 (ip), vehicle: saline 102 % of control | endpoint: mean survival time, dose: 400.0 mg/kg/injection, schedule: Q01DX009 (ip), vehicle: saline 103 % of control

COc1ccc(OC)c(CC(C)=O)c1
inactive: [1] 93 % of control | [2] 101 % of control | [3] 95 % of control

Nc1ccccc1NC(=O)C(F)(F)F
inactive: endpoint: mean survival time, dose: 50.0 mg/kg/injection, schedule: Q01DX001 (ip), vehicle: carboxymethylcellulose (CMC) 93 % of control | [1] 97 % of control | [2] 98 % of control | [3] 108 % of control

CC(=O)c1ccc(S(=O)(=O)Cl)cc1
inactive: [10] 113 % of control | [11] 90 % of control | [12] 104 % of control

CCOc1ccc(OC/C=C(\C)CC/C=C(/C)CC)cc1
inactive: [7] 96 % of control | [8] 99 % of control | [9] 108 % of control

COc1ccc(NC(=O)O/N=C2\CN(S(=O)(=O)c3ccc(C)cc3)CCc3ccccc32)cc1
inactive: [14] 91 % of control | [15] 94 % of control | [16] 96 % of control

OCCCNc1nc2c(Cl)cc(Cl)cc2c2ccccc12
inactive: [4] 104 % of control | [14] 107 % of control | [5] 94 % of control | [15] 108 % of control | [16] 95 % of control

CN1CCN(CCCN2c3ccccc3Sc3ccc(Cl)cc32)CC1
inactive: endpoint: mean survival time, dose: 100.0 mg/kg/injection, schedule: Q04DX002 (ip), vehicle: Klucel (hydroxypropylcellulose) (HPC) 104 % of control | endpoint: mean survival time, dose: 200.0 mg/kg/injection, schedule: Q04DX002 (ip), vehicle: Klucel (hydroxypropylcellulose) (HPC) 90 % of control | endpoint: median survival time, dose: 6.25 mg/kg/injection, schedule: Q06HX032 (oral), vehicle: Klucel (hydroxypropylcellulose) (HPC) 97 % of control | endpoint: median survival time, dose: 6.25 mg/kg/injection, schedule: Q06HX044 (oral), vehicle: Klucel (hydroxypropylcellulose) (HPC) 91 % of control | endpoint: median survival time, dose: 12.5 mg/kg/injection, schedule: Q06HX032 (oral), vehicle: Klucel (hydroxypropylcellulose) (HPC) 98 % of control and 107 % of control | endpoint: median survival time, dose: 12.5 mg/kg/injection, schedule: Q06HX044 (oral), vehicle: Klucel (hydroxypropylcellulose) (HPC) 95 % of control and 96 % of control | endpoint: median survival time, dose: 25.0 mg/kg/injection, schedule: Q06HX032 (oral), vehicle: Klucel (hydroxypropylcellulose) (HPC) 97 % of control and 116 % of control | endpoint: median survival time, dose: 25.0 mg/kg/injection, schedule: Q06HX044 (oral), vehicle: Klucel (hydroxypropylcellulose) (HPC) 101 % of control and 76 % of control | endpoint: median survival time, dose: 50.0 mg/kg/injection, schedule: Q06HX032 (oral), vehicle: Klucel (hydroxypropylcellulose) (HPC) 57 % of control and 69 % of control | endpoint: median survival time, dose: 50.0 mg/kg/injection, schedule: Q06HX044 (oral), vehicle: Klucel (hydroxypropylcellulose) (HPC) 93 % of control and 35 % of control

COc1c2c(c(OC)c3c(=O)c4ccccc4[nH]c13)OCO2
inactive: endpoint: mean survival time, dose: 62.5 mg/kg/injection, schedule: Q01DX001 (ip), vehicle: carboxymethylcellulose (CMC) 100 % of control | endpoint: mean survival time, dose: 125.0 mg/kg/injection, schedule: Q01DX001 (ip), vehicle: carboxymethylcellulose (CMC) 97 % of control | endpoint: mean survival time, dose: 250.0 mg/kg/injection, schedule: Q01DX001 (ip), vehicle: carboxymethylcellulose (CMC) 105 % of control | endpoint: mean survival time, dose: 500.0 mg/kg/injection, schedule: Q01DX001 (ip), vehicle: carboxymethylcellulose (CMC) 97 % of control

O=C1CNC(c2ccccc2)c2cc(Cl)ccc2N1 (stereo not drawn)
inactive: endpoint: mean survival time, dose: 25.0 mg/kg/injection, schedule: Q01DX009 (ip), vehicle: Klucel (hydroxypropylcellulose) (HPC) 101 % of control | [4] 92 % of control | [5] 87 % of control

O=[N+]([O-])c1cc(S(=O)(=O)F)cc(Cl)c1O
inactive: [4] 97 % of control | [5] 89 % of control

CSc1nc(N)c(N=Nc2ccc(S(=O)(=O)Nc3nccs3)cc2)c(=O)[nH]1
inactive: [1] 92 % of control | [2] 92 % of control | [3] 92 % of control

OCC1OC(n2cnc3c(SCc4ccccn4)ncnc32)C(O)C1O (stereo not drawn)
inactive: [11] 101 % of control | [12] 113 % of control | [13] 115 % of control
